Source: US10874670B2, “Substituted fused heteroaromatic compounds as kinase inhibitors and the use thereof” (IMPACT THERAPEUTICS, INC., priority 2017, dated 2020)

Tests used:
ATM enzyme (human) = ATM enzyme (human) (Homo sapiens, UniProt Q13315); test: ATM kinase assay (HTRF, GST-cMyc-p53 substrate); format: biochemical; details: 0.5 h, read-out: Inh (%) of ATM kinase; for inhibition at 1 µM: C 1 μm (final concentration of compound); for inhibition at 0.01 µM: C 0.01 μm (final concentration of compound); for inhibition at 0.1 µM: C 0.1 μm (final concentration of compound)
ATM enzyme (human), sequence (Q13315 whole entry): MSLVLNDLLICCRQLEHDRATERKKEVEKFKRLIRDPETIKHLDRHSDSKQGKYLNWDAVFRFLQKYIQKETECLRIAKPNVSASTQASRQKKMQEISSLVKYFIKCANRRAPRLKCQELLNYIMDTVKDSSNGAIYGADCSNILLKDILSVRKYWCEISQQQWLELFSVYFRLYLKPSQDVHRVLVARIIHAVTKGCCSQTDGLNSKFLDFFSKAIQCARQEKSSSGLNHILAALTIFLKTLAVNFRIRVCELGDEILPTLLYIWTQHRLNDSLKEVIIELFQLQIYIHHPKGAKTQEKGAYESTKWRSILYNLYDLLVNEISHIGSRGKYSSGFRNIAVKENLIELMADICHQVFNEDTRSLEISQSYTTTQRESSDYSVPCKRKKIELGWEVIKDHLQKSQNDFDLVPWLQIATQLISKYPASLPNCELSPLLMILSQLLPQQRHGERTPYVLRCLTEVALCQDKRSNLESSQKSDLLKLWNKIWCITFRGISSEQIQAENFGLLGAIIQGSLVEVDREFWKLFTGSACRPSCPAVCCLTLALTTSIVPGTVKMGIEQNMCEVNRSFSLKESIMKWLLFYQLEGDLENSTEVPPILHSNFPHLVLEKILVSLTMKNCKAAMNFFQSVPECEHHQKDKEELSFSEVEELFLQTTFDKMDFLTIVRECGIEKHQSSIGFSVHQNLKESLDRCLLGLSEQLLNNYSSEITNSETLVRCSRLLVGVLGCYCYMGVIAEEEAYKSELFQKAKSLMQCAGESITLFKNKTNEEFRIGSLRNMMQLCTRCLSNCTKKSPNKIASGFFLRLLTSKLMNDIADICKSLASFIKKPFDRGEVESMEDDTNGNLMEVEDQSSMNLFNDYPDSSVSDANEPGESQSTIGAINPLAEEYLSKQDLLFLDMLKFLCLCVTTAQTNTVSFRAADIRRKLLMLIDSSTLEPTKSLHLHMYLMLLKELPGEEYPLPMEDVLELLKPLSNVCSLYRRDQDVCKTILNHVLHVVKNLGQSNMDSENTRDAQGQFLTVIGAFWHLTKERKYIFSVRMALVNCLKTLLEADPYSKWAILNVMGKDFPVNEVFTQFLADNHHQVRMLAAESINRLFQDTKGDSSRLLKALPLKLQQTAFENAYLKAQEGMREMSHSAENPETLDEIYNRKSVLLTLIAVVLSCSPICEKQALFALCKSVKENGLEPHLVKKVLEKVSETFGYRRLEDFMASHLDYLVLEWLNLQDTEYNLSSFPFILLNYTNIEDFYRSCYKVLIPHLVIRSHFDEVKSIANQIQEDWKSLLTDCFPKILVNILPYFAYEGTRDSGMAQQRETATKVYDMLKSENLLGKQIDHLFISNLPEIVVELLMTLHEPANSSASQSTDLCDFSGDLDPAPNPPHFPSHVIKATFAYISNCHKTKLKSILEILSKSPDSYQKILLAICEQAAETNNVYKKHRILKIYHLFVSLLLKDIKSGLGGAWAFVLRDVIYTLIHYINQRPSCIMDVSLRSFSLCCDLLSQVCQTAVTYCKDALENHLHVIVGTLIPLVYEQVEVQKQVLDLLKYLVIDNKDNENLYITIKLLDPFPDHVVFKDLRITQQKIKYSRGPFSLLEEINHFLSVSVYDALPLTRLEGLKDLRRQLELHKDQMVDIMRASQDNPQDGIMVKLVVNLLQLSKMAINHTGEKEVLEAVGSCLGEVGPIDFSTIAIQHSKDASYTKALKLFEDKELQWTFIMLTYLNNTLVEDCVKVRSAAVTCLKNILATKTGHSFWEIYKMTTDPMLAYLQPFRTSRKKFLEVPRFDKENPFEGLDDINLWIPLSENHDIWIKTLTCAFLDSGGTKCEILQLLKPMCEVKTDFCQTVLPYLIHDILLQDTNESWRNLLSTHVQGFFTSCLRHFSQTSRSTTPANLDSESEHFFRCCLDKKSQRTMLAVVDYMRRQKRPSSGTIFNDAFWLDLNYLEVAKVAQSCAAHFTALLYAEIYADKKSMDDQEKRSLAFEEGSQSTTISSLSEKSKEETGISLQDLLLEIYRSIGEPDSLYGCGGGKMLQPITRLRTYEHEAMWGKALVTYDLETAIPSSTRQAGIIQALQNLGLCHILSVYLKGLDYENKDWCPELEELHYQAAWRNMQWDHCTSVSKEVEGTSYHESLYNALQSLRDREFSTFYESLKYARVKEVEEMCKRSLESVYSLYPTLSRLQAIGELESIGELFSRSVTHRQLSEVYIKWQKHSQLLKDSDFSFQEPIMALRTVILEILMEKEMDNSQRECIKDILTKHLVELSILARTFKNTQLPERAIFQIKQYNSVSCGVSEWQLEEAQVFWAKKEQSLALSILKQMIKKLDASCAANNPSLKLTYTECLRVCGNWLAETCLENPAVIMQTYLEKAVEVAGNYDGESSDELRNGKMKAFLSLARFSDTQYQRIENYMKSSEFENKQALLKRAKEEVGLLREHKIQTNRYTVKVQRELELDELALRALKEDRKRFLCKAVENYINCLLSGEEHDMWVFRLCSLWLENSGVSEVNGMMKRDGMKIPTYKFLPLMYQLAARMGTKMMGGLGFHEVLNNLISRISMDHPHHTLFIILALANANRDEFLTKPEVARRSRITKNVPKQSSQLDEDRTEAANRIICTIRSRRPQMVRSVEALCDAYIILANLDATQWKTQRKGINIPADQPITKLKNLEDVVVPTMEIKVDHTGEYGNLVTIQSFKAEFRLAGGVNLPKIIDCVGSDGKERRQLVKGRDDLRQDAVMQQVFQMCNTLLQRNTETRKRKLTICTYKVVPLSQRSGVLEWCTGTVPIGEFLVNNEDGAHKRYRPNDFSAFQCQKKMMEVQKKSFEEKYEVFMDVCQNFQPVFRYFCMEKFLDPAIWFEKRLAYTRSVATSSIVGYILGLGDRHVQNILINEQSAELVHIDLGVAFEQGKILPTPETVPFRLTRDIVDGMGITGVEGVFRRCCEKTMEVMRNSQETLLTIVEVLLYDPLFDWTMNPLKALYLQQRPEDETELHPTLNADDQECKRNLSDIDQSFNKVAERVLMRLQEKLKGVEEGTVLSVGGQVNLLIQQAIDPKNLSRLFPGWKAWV
Outline: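 Reaction with GST-cMyc-p53 substrate started with Mg/ATP, run 30 minutes at room temperature, then stopped with EDTA. Phospho-p53 (Ser15) detected by HTRF with Eu-labelled anti-phospho antibody and d2 anti-GST, signal as 10000×(Em665/Em620). Duplicates; IC50 from a curve fit with slope factor.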

[1] = test system: human colon cancer cell SW620; test: MTT assay, growth of SW620 cells, compounds combined with CPT-11; format: cell-based; details: Homo sapiens, SW-620, 120 h; combined with CPT-11 (205 nM medium), 5 days, MTT
Outline: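 SW620 cells in RPMI 1640/10% FBS were exposed to 8-point compound dilutions (top 10 or 1 μM, 1% DMSO final) plus CPT-11 (205 nM in added medium) for 5 days at 37 °C. Viability by MTT (0.5 mg/mL, 4 h) absorbance; IC50 from sigmoidal fit.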

[2] = test system: human breast cancer cell MDA-MB-468; test: MTT assay, growth of MDA-MB-468 cells; format: cell-based; details: Homo sapiens, MDA-MB-468, 168 h; 7 days, MTT
Outline: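 MDA-MB-468 cells in RPMI 1640 with 10% FBS were exposed to 8-point compound dilutions (final DMSO 1%) for 7 days at 37 °C, with drug-containing medium renewed on day 4. Viability was read by MTT (0.5 mg/mL, 4 h) absorbance at 552/630/690 nm. IC50 came from a sigmoidal dose-response fit.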

Compound	inhibition at 1 µM (ATM enzyme (human)) [%]	IC50 [1] [nM]	IC50 [2] [nM]	inhibition at 0.001 µM (ATM enzyme (human); C 0.001 μm (final concentration of compound)) [%]	inhibition at 0.01 µM (ATM enzyme (human)) [%]	inhibition at 0.1 µM (ATM enzyme (human)) [%]
CN(C)C1CCN(c2ccc(-c3cc4c(cn3)ncc3nnc(C5CCOCC5)n34)cc2)CC1 [Example 71, N,N-dimethyl-1-(4-(1-(tetrahydro-2H-pyran-4-yl)pyrido[3,4-e][1,2,4]triazolo[4,3-a]pyrazin-8-yl)phenyl)piperidin-4-amine]	19	> 100000	> 100000			
CN(C)C1CCN(c2ccc(-c3ccc4ncc5nnc(C6CCOCC6)n5c4n3)cc2)CC1 [Example 72, N,N-dimethyl-1-(4-(9-(tetrahydro-2H-pyran-4-yl)pyrido[3,2-e][1,2,4]triazolo[4,3-a]pyrazin-2-yl)phenyl)piperidin-4-amine]	99	62.9	104	39	82	97
NC1CCN(c2ccc(-c3ccc4ncc5nnc(C6CCOCC6)n5c4n3)cc2)CC1 [Example 73, 1-(4-(9-(tetrahydro-2H-pyran-4-yl)pyrido[3,2-e][1,2,4]triazolo[4,3-a]pyrazin-2-yl)phenyl)piperidin-4-amine]	100	191	210			
CNC1CCN(c2ccc(-c3ccc4ncc5nnc(C6CCOCC6)n5c4n3)cc2)CC1 [Example 74, N-methyl-1-(4-(9-(tetrahydro-2H-pyran-4-yl)pyrido[3,2-e][1,2,4]triazolo[4,3-a]pyrazin-2-yl)phenyl)piperidin-4-amine]	100	199	305		66	96
CCNC1CCN(c2ccc(-c3ccc4ncc5nnc(C6CCOCC6)n5c4n3)cc2)CC1 [Example 75, N-ethyl-1-(4-(9-(tetrahydro-2H-pyran-4-yl)pyrido[3,2-e][1,2,4]triazolo[4,3-a]pyrazin-2-yl)phenyl)piperidin-4-amine]	100	158	168			
CN(C)C1CCN(c2ccc(-c3ccc4ncc5nnc(C6CCOCC6)n5c4n3)cn2)CC1 [Example 76, N,N-dimethyl-1-(5-(9-(tetrahydro-2H-pyran-4-yl)pyrido[3,2-e][1,2,4]triazolo[4,3-a]pyrazin-2-yl)pyridin-2-yl)piperidin-4-amine]	100	818	262			
CNC1CCN(c2ccc(-c3ccc4ncc5nnc(CN6CCOCC6)n5c4n3)cc2)CC1 [Example 77, N-methyl-1-(4-(9-(morpholinomethyl)pyrido[3,2-e][1,2,4]triazolo[4,3-a]pyrazin-2-yl)phenyl)piperidin-4-amine]	97	1010	937			
